Laboratory results reported in US7608630B2, “Marasmius androsaceus L.es Fr extract, piperidone derivative, and their use for the preparation of hypertensives” (Hainan Yangpu New Special Pharmaceutical Co., Ltd., priority 2004, dated 2009).
Where “and” joins values, the source holds several entries; their conditions need not be identical. Equal values may be shown once.

System: blood pressure of cats
Experiment: Reduction of blood pressure of cat
Assay type: in vivo
Conditions: for Average Diastolic pressure / Average Systolic pressure / Diastolic pressure, Animal 1-4 individually / Systolic pressure, Animal 1-4 individually / Diastolic pressure, individual animals: cats
Protocol: A spontaneously hypertensive rat (SHR) was anesthetized with 40 mg/ml pentobarbital, and fixed by its back on an experimental stand. The skin at its neck was cut open after removing hair, and thereafter the right common carotid artery was separated with its proximal end being clamped by a artery clamp and its axifugal end being ligated by a thread. A V-shape cut was made with scissors at the axifugal end, into which an arterial cannula filled with heparin physiological saline was inserted. The arterial cannula was connected with a blood pressure transducer, and then the blood pressure transducer was connected to a computer-controlled three-way physiological-pharmacological recorder. The right femoral vein of the rat was separated and intubated for the injection of a drug. When the blood pressure became stable (i.e., the blood pressure contraction curve became straight), the rat was administered by intravenous route.
Five cats of 2.5-3.2 kg were administered orally and intravenously respectively according to the method in Example 8, and then their systolic pressure and diastolic pressure were determined using normal cats non-administered as a control group.

[1] = 5 mg/kg iv, 10 min after administration
[2] = 5 mg/kg iv, 10 min after administration, 5 mg/kg
[3] = 5 mg/kg iv, 20 min after administration
[4] = 5 mg/kg iv, 20 min after administration, 5 mg/kg
[5] = 5 mg/kg iv, 30 min after administration
[6] = 5 mg/kg iv, 30 min after administration, 5 mg/kg
[7] = 5 mg/kg iv, 40 min after administration
[8] = 5 mg/kg iv, 40 min after administration, 5 mg/kg
[9] = 5 mg/kg iv, 50 min after administration
[10] = 5 mg/kg iv, 50 min after administration, 5 mg/kg
[11] = 5 mg/kg iv, 60 min after administration
[12] = 5 mg/kg iv, 60 min after administration, 5 mg/kg
[13] = 5 mg/kg iv, 90 min after administration
[14] = 5 mg/kg iv, 90 min after administration, 5 mg/kg
[15] = 5 mg/kg iv, 120 min after administration
[16] = 5 mg/kg iv, 120 min after administration, 5 mg/kg
[17] = 5 mg/kg iv, 150 min after administration
[18] = 5 mg/kg iv, 150 min after administration, 5 mg/kg
[19] = 5 mg/kg iv, 180 min after administration
[20] = 5 mg/kg iv, 180 min after administration, 5 mg/kg
[21] = 5 mg/kg iv, before administration
[22] = 5 mg/kg iv, before administration, 5 mg/kg
[23] = 10 mg/kg o.s, 10 min after administration
[24] = 10 mg/kg o.s, 10 min after administration, 10 mg/kg
[25] = 10 mg/kg o.s, 20 min after administration
[26] = 10 mg/kg o.s, 20 min after administration, 10 mg/kg
[27] = 10 mg/kg o.s, 30 min after administration
[28] = 10 mg/kg o.s, 30 min after administration, 10 mg/kg

SMILES: CC1(C)CNCC(C)(C)C1=O [Compound of formula II, 3,3,5,5-tetramethyl-4-piperidone]
- effect of reducing blood pressure (5-20 mg/kg, model of anesthetic cat): very obvious effect of reducing blood pressure
- Average Diastolic pressure [1]: 106 mmHg
- Average Systolic pressure [1]: 135.5 mmHg
- Diastolic pressure, Animal 1-4 individually [2]: 84 mmHg and 93 mmHg and 146 mmHg and 101 mmHg
- Systolic pressure, Animal 1-4 individually [2]: 100 mmHg and 110 mmHg and 182 mmHg and 150 mmHg
- Average Diastolic pressure [3]: 105.75 mmHg
- Average Systolic pressure [3]: 139.75 mmHg
- Diastolic pressure, Animal 1-4 individually [4]: 79 mmHg and 109 mmHg and 137 mmHg and 98 mmHg
- Systolic pressure, Animal 1-4 individually [4]: 111 mmHg and 126 mmHg and 172 mmHg and 150 mmHg
- Average Diastolic pressure [5]: 106.25 mmHg
- Average Systolic pressure [5]: 141.25 mmHg
- Diastolic pressure, Animal 1-4 individually [6]: 80 mmHg and 111 mmHg and 136 mmHg and 98 mmHg
- Systolic pressure, Animal 1-4 individually [6]: 119 mmHg and 137 mmHg and 173 mmHg and 136 mmHg
- Average Diastolic pressure [7]: 110.5 mmHg
- Average Systolic pressure [7]: 144.5 mmHg
- Diastolic pressure, Animal 1-4 individually [8]: 100 mmHg and 111 mmHg and 134 mmHg and 97 mmHg
- Systolic pressure, Animal 1-4 individually [8]: 134 mmHg and 137 mmHg and 172 mmHg and 135 mmHg
- Average Diastolic pressure [9]: 117 mmHg
- Average Systolic pressure [9]: 152.25 mmHg
- Diastolic pressure, Animal 1-4 individually [10]: 117 mmHg and 120 mmHg and 134 mmHg and 97 mmHg
- Systolic pressure, Animal 1-4 individually [10]: 156 mmHg and 147 mmHg and 171 mmHg and 135 mmHg
- Average Diastolic pressure [11]: 118.25 mmHg
- Average Systolic pressure [11]: 158 mmHg
- Diastolic pressure, Animal 1-4 individually [12]: 131 mmHg and 120 mmHg and 130 mmHg and 92 mmHg
- Systolic pressure, Animal 1-4 individually [12]: 174 mmHg (2×) and 142 mmHg (2×)
- Average Diastolic pressure [13]: 121.75 mmHg
- Average Systolic pressure [13]: 164.5 mmHg
- Diastolic pressure, Animal 1-4 individually [14]: 122 mmHg and 129 mmHg and 144 mmHg and 92 mmHg
- Systolic pressure, Animal 1-4 individually [14]: 170 mmHg and 167 mmHg and 178 mmHg and 143 mmHg
- Average Diastolic pressure [15]: 124 mmHg
- Average Systolic pressure [15]: 174.5 mmHg
- Diastolic pressure, Animal 1-4 individually [16]: 123 mmHg and 129 mmHg and 148 mmHg and 96 mmHg
- Systolic pressure, Animal 1-4 individually [16]: 182 mmHg and 167 mmHg and 202 mmHg and 147 mmHg
- Average Diastolic pressure [17]: 127.5 mmHg
- Average Systolic pressure [17]: 177 mmHg
- Diastolic pressure, Animal 1-4 individually [18]: 124 mmHg and 140 mmHg and 148 mmHg and 98 mmHg
- Systolic pressure, Animal 1-4 individually [18]: 186 mmHg and 170 mmHg and 202 mmHg and 150 mmHg
- Average Diastolic pressure [19]: 133.75 mmHg
- Average Systolic pressure [19]: 185 mmHg
- Diastolic pressure, Animal 1-4 individually [20]: 123 mmHg and 148 mmHg and 156 mmHg and 108 mmHg
- Systolic pressure, Animal 1-4 individually [20]: 187 mmHg and 176 mmHg and 212 mmHg and 165 mmHg
- Average Diastolic pressure [21]: 146.25 mmHg
- Average Systolic pressure [21]: 199.5 mmHg
- Diastolic pressure, Animal 1-4 individually [22]: 169 mmHg and 138 mmHg and 163 mmHg and 115 mmHg
- Systolic pressure, Animal 1-4 individually [22]: 226 mmHg and 183 mmHg and 211 mmHg and 178 mmHg
- Average Diastolic pressure [23]: 119 mmHg
- Average Systolic pressure [23]: 166.25 mmHg
- Diastolic pressure, individual animals [24]: 143 mmHg and 145 mmHg and 112 mmHg and 76 mmHg
- Systolic pressure, Animal 1-4 individually [24]: 190 mmHg and 180 mmHg and 159 mmHg and 136 mmHg
- Average Diastolic pressure [25]: 107.25 mmHg
- Average Systolic pressure [25]: 153 mmHg
- Diastolic pressure, individual animals [26]: 130 mmHg and 136 mmHg and 91 mmHg and 72 mmHg
- Systolic pressure, Animal 1-4 individually [26]: 170 mmHg and 181 mmHg and 138 mmHg and 123 mmHg
- Average Diastolic pressure [27]: 96 mmHg
- Average Systolic pressure [27]: 140.5 mmHg
- Diastolic pressure, individual animals [28]: 110 mmHg and 108 mmHg and 91 mmHg and 75 mmHg
- Systolic pressure, Animal 1-4 individually [28]: 154 mmHg and 140 mmHg and 138 mmHg and 130 mmHg
